Test results published in patent US7662769B2, “Glycosyltransferase GnT-V having neovascularization action” (Suntory Holdings Limited, priority 2002, dated 2010).
“Also recorded” adds a separate entry of the source. Where no end group is shown, it is not given here.

Key:
[1] = test system: HSPG on HUVEC; experiment: release of FGF-2 from HSPG on HUVEC (FGF-2 ELISA of supernatant); assay type: cell-based, human; conditions: 4° C., 2 hours; FIG. 5
Description: A basic peptide (KRKRKK peptide) composed of Lys-Arg-Lys-Arg-Lys-Lys (SEQ ID NO: 11) which is an amino acid sequence of from 264 to 269 and a non-basic control peptide (FSGGPL peptide) composed of Phe-Ser-Gly-Gly-Pro-Leu (SEQ ID NO: 12) which is an amino acid sequence of from 291 to 296, of GnT-V, were synthesized, and an influence of these peptides on growth of HUVEC was examined. The peptide was synthesized by a peptide synthesizer A432 (manufactured by Applied Biosystems), and purified by reverse phase HPLC, then, its molecular weight and degree of purification were confirmed by MALDI TOF-MS (Voyager-DE (registered trademark) RP; manufactured by PerSeptive Biosystems). The concentration of FGF-2 was measured by a known method (Barillari, G., et al., American J. Patho. 152, 1161-1166 (1998)). […] After centrifugation at 4° C. and 3000 rpm for 5 minutes, the supernatant was collected, the concentration of FGF-2 in the supernatant was measured in an FGF-2 ELISA system (manufactured by R&D Systems) according to a manual of this system.
As described above, various deficient variants of GnT-V and synthetic peptides were added at 4° C. to culture solution of HUVEC, and the amount of FGF-2 released from HSPG on HUVEC was measured.

[2] = test system: chicken microvessels; experiment: CAM (chorioallantoic membrane) assay of neovascularization; assay type: in vivo; conditions: ex-vivo, chicken embryo CAM
Method: Acceleration of neovascularization by a GnT-V transformant was confirmed by a CAM (chorioallantoic membrane) assay using an embryo of a chicken fertilized egg. The CAM assay was conducted by a method of Yen et al. (Yen, L., et al., Oncogene 19, 3460-3469 (2000)) and a method of Bernardini (Bernardini, G., et al., Blood 96, 4039-4045 (2000)), both being slightly modified. CAM 8 days after fertilization of white Leghorn was used, and 1×10^5 cells thereof were inoculated on a collagen sponge and maintained for 4 hours. A 5 mm silicon ring was placed on CAM on the collagen sponge and maintained for 48 hours.
Induction of neovascularization by GnT-V was confirmed also by other in vitro neovascularization assays such as a capillary-like tube formation assay (Ashoton, A. W., et al., J. Biol. Chem. 274, 35562-35570 (1999)) and a migration assay (Zeng, H., et al., J. Biol. Chem. 276, 3271-3279 (2001)) using HUVEC.

[3] = test system: HUVEC; experiment: HUVEC differentiation and growth, incorporation of [3H]-thymidine (DNA synthesis); assay type: cell-based, human; conditions: [3H]-thymidine incorporation; FIG. 2, 3B, 6
Method: For in vitro evaluation of induction of neovascularization by a GnT-V transformant, the amount of synthesis of DNA of human umbilical vein […] cells (HUVEC) after stimulation with culture solution of a GnT-V transformant was measured by a method of Soker et al.(Soker, S., et al., J. Biol. Chem. 272, 31582-31588 (1997)). HUVEC was inoculated on a 96-well plate coated with type I collagen at a rate of 2×10^3 cells per well, and 24 hours later, the medium was substituted with an MCDB131 medium (not containing FBS and FGF-2) containing 0.1% […] and a starved condition was maintained for 24 hours. The medium was substituted with culture solution of the WiDr cell transformed with the glycosyltransferase gene described in Example 1, and HUVEC was stimulated for 24 hours. HUVEC was maintained for 8 hours with [^3H]-thymidine (1 μCi/ml), and incorporation of [^3H]-thymidine into HUVEC was analyzed by MicroBeta-Counter (manufactured by Wallac) to measure the amount of synthesis of DNA. The result was shown as the mean value of assay results of 6 wells, and the standard deviation was measured. All experiments were repeated at least three times, and the same results were obtained. As apparent from FIG. 1, DNA synthesis of HUVEC stimulated with the culture solution of WiDr cells transformed with a GnT-V gene increased, however, the same effect was not observed in culture solution of WiDr cells transformed with other glycosyltransferase genes.
Purification of a neovascularization factor present in culture solution of WiDr cells transformed with a GnT-V gene was conducted using various column chromatographies. The neovascularization activity of each fraction was evaluated by differentiation and growth of HUVEC described in Example 3. In heparin affinity chromatography, a fraction of high growth activity of HUVEC was eluted with 0.3 M NaCl. Since known growth factors such as FGF-1, FGF-2, VEGF, placenta-induced growth factor (PIGF) and hepatocyte growth factor (HGF) and the like are eluted with 0.8 to 1.5 M NaCl (Hauser, S. & Weich H. A., Growth Factor 9, 259-268 (1993). Gohda, E., et al., J. Clin. Invest. 81, 414-419 (1998). Marez, A., et al., Biochimie 69, 125-129 (1987). Risau, W., et al., The EMBO J. 7, 959-962 (1988). Rothenthal, R. A., et al., Growth Factor 4, 53-59 (1990)), the above-mentioned nature is utterly different from the natures of these known growth factors. […] A fraction eluted with 0.3 M NaCl in heparin affinity chromatography was subjected to Western blot analysis using an anti-GnT-V antibody to find that the reaction of the anti-GnT-V antibody and the differentiation and growth activity of HUVEC are consistent each other, and the main protein having a differentiation and growth activity of HUVEC present in the fraction is GnT-V itself.

[4] = glycosyltransferase activity of GnT-V deficient variants; assay type: biochemical; conditions: recombinant variants from Sf21 cells
Description: For clarifying which domain of GnT-V is involved in HUVEC growth accelerating activity, a GnT-V lacking variant shown in FIG. 3A was produced. The method of production of a GnT-VΔ188 plasmid is disclosed in a literature of Sasai et al (Sasai, K., et al., Glycobiology (in press)). A transfer plasmid having a GnT-VΔ233 gene was produced by binding a DNA fragment of 1521 base pairs encoding polyhistidine tag at the C-terminal and an amino acid sequence of from Glu234 to Leu741 of human GnT-V, obtained by cutting a GnT-VΔ188 plasmid with EcoRI and EagI, to an EcoRI-EagI site of a transfer vector pAcGP67-A (manufactured by PharMingen). A transfer plasmid having a GnT-VΔ436 gene was produced by binding a DNA fragment of 912 base pairs encoding polyhistidine tag at the C terminal and an amino acid sequence of from Ile437 to Leu741, of human GnT-V, obtained by cutting a GnT-VΔ188 plasmid with EcoRV and EagI, to an EcoRV-EagI site of a transfer vector pAcGP67-A. For production of a recombinant Baculovirus, an insect cell Sf21 was transformed with the transfer plasmid obtained above according to a method known in a literature (Ikeda, Y., et al., J. Biochem. 128, 609-619 (2000)). The recombinant glycosyltransferase derived from the transformed Sf21 cell was purified by Ni^2+-chelating affinity chromatography according to a method disclosed in a literature of Sasaki et al (Sasai, K., et al., Glycobiology (in press)).

| Molecule | release of FGF-2 from HSPG on HUVEC [1] | induction of neovascularization in CAM assay [2] | differentiation and growth of HUVEC (HUVEC growth accelerating activity) [3] | glycosyltransferase activity [4] |
| --- | --- | --- | --- | --- |
| heparin [reference compound] | induced release of FGF-2 | – | – | – |
| KRKRKK [KRKRKK peptide] | released FGF-2 | induced neovascularization likewise | accelerated growth of HUVEC at the same degree as GnT-VΔ73 | – |
| FSGGPL [FSGGPL peptide, reference compound] | did not affect release of FGF-2 | did not have a neovascularization activity | – | – |
| FGF-2: fibroblast growth factor-2 [reference compound] | – | induced neovascularization of chicken microvessels | – | – |
| GnT-VΔ188: GnT-V lacking variant shown in FIG. 3A, recombinant from Sf21 cells (protein, UniProt Q09328 189-741, looked up, fragment) LSEVENWCPHLPWRAKNPYEEADHNSLAEIRTDFNILYSMMKKHEEFRWMRLRIRRMADAWIQAIKSLAEKQNLEKRKRKKVLVHLGLLTKESGFKIAETAFSGGPLGELVQWSDLITSLYLLGHDIRISASLAELKEIMKKVVGNRSGCPTVGDRIVELIYIDIVGLAQFKKTLGPSWVHYQCMLRVLDSFGTEPEFNHANYAQSKGHKTPWGKWNLNPQQFYTMFPHTPDNSFLGFVVEQHLNSSDIHHINEIKRQNQSLVYGKVDSFWKNKKIYLDIIHTYMEVHATVYGSSTKNIPSYVKNHGILSGRDLQFLLRETKLFVGLGFPYEGPAPLEAIANGCAFLNPKFNPPKSSKNTDFFIGKPTLRELTSQHPYAEVFIGRPHVWTVDLNNQEEVEDAVKAILNQKIEPYMPYEFTCEGMLQRINAFIEKQDFCHGQVMWPPLSALQVKLAEPGQSCKQVCQESQLICEPSFFQHLNKDKDMLKYKVTCQSSELAKDILVPSFDPKNKHCVFQGDLLLFSCAGAHPRHQRVCPCRDFIKGQVALCKDCL | released FGF-2 | – | had an HUVEC growth and differentiation accentuation action | had a glycosyltransferase activity |
| GnT-VΔ73: soluble recombinant GnT-V maintaining a glycosyltransferase activity but lacking in transmembrane portion, prepared by a Baculovirus system (protein, UniProt Q09328 74-741, looked up, fragment) AGVMTAYDLKKTLAVLLDNILQRIGKLESKVDNLVVNGTGTNSTNSTTAVPSLVALEKINVADIINGAQEKCVLPPMDGYPHCEGKIKWMKDMWRSDPCYADYGVDGSTCSFFIYLSEVENWCPHLPWRAKNPYEEADHNSLAEIRTDFNILYSMMKKHEEFRWMRLRIRRMADAWIQAIKSLAEKQNLEKRKRKKVLVHLGLLTKESGFKIAETAFSGGPLGELVQWSDLITSLYLLGHDIRISASLAELKEIMKKVVGNRSGCPTVGDRIVELIYIDIVGLAQFKKTLGPSWVHYQCMLRVLDSFGTEPEFNHANYAQSKGHKTPWGKWNLNPQQFYTMFPHTPDNSFLGFVVEQHLNSSDIHHINEIKRQNQSLVYGKVDSFWKNKKIYLDIIHTYMEVHATVYGSSTKNIPSYVKNHGILSGRDLQFLLRETKLFVGLGFPYEGPAPLEAIANGCAFLNPKFNPPKSSKNTDFFIGKPTLRELTSQHPYAEVFIGRPHVWTVDLNNQEEVEDAVKAILNQKIEPYMPYEFTCEGMLQRINAFIEKQDFCHGQVMWPPLSALQVKLAEPGQSCKQVCQESQLICEPSFFQHLNKDKDMLKYKVTCQSSELAKDILVPSFDPKNKHCVFQGDLLLFSCAGAHPRHQRVCPCRDFIKGQVALCKDCL | released FGF-2 | induced neovascularization of chicken microvessels | increased in addition amount-dependent manner; also recorded: had an HUVEC growth and differentiation accentuation action | – |
| α1,6-fucosyltransferase (protein, UniProt Q9BYC5 1-575, looked up, recombinant α1,6-fucosyltransferase used as control glycosyltransferase) Alpha-(1,6)-fucosyltransferase: MRPWTGSWRWIMLILFAWGTLLFYIGGHLVRDNDHPDHSSRELSKILAKLERLKQQNEDLRRMAESLRIPEGPIDQGPAIGRVRVLEEQLVKAKEQIENYKKQTRNGLGKDHEILRRRIENGAKELWFFLQSELKKLKNLEGNELQRHADEFLLDLGHHERSIMTDLYYLSQTDGAGDWREKEAKDLTELVQRRITYLQNPKDCSKAKKLVCNINKGCGYGCQLHHVVYCFMIAYGTQRTLILESQNWRYATGGWETVFRPVSETCTDRSGISTGHWSGEVKDKNVQVVELPIVDSLHPRPPYLPLAVPEDLADRLVRVHGDPAVWWVSQFVKYLIRPQPWLEKEIEEATKKLGFKHPVIGVHVRRTDKVGTEAAFHPIEEYMVHVEEHFQLLARRMQVDKKRVYLATDDPSLLKEAKTKYPNYEFISDNSISWSAGLHNRYTENSLRGVILDIHFLSQADFLVCTFSSQVCRVAYEIMQTLHPDASANFHSLDDIYYFGGQNAHNQIAIYAHQPRTADEIPMEPGDIIGVAGNHWDGYSKGVNRKLGRTGLYPSYKVREKIETVKYPTYPEAEK | – | – | did not show HUVEC growth accelerating activity at all | – |
